Patent US6846664B2, “Process for the preparation of protease inhibitor using novel alkalothermophilic bacillus sp” (priority 2000, dated 2005)
Ends that are not written are not given here.

How the values were obtained:
Curvularia fallax = test: Mycelial growth inhibition, filter paper disc on potato dextrose agar; type: cell-based; conditions: Curvularia fallax NCIM 714; room temperature 24-48 h
From the text: (§1) The fungal strains Trichoderma reesei (deposited at The National Collection for Industrial Micro-organisms, Pune India and bearing accession numbers NCIM 992, NCIM 1052- and NCIM 1186), Fusarium oxysporum (bearing accession numbers NCIM 1008, 1043, 1072), Aspergillus flavus (bearing accession numbers NCIM 535, 536, 538, 542), Aspergillus oryzae (bearing accession numbers NCIM 637, 643, 649, 1032), Fusarium moniliforme (bearing accession numbers NCIM 1099, 1100), Alternaria alternata (bearing accession numbers NCIM 887), Claviceps purpurea (bearing accession numbers NCIM 1046), Curvularia fallax (bearing accession numbers NCIM 714), Curvularia lunata (NCIM 716), Curvularia cymbopogonis (bearing accession numbers NCIM 695) and Penicillium fellatanum (bearing accession numbers NCIM 1227) were grown on potato dextrose agar slants for 7-8 days. The said fungal strains have characteristics similar to the strains deposited at American Type Culture Collection, USA and bearing accession number as under: • Trichoderma reesei NCIM 992-ATCC No.13631 • Trichoderma reesei NCIM 1052-ATCC No.24449 • Trichoderma reesei NCIM 1186-ATCC No.26921 Fungal mycelium from the freshly grown culture was inoculated at the centre of petri plates containing potato dextrose agar medium and incubated till they form small circular growth. The time period for the vegetative growth of different fungus is different. On the periphery of the advancing fungal mycelia, four filter paper discs were impregnated at equal distances, with four different concentrations of the inhibitor sample. The plates were incubated at room temperature for 24-48 h to check the crescent zone of the retarded mycelial growth. For sporulating fungus the applicants also had checked the inhibition by spore suspension method. In this method the agar slants were incubated at room temperature till they sporulate. 4 ml of sterile distilled water was added aseptically to the agar slant and the spores were scrapped by using an inoculation loop. 1 ml of this suspension was mixed with 4 ml of malt extract, glucose, yeast extract, peptone media containing 0.4% agarose and poured onto the potato dextrose agar plate. This plate was incubated at room temperature for 4-10 h. Filter paper discs were impregnated and different concentrations of the inhibitor was added onto it. The plates were further incubated at room temperature for 24-48 h and the inhibition zone against the growth was checked. […] The advantages of the Invention are […]

Curvularia lunata = test: as above; type: cell-based; conditions: Curvularia lunata NCIM 716; room temperature 24-48 h
From the text: as §1

Curvularia cymbopogonis = test: as above; type: cell-based; conditions: Curvularia cymbopogonis NCIM 695; room temperature 24-48 h
From the text: as §1

Claviceps purpurea = test: as above; type: cell-based; conditions: Claviceps purpurea NCIM 1046; room temperature 24-48 h
From the text: as §1

Aspergillus flavus = test: Antifungal activity assay (mycelial growth / spore germination); type: cell-based
From the text: (§2) The fungal strains Trichoderma reesei (deposited at The National Collection for Industrial Micro-organisms, Pune India and bearing accession numbers NCIM 992, NCIM 1052- and NCIM 1186), Fusarium oxysporum (bearing accession numbers NCIM 1008, 1043, 1072), Aspergillus flavus (bearing accession numbers NCIM 535, 536, 538, 542), Aspergillus oryzae (bearing accession numbers NCIM 637, 643, 649, 1032), Fusarium moniliforme (bearing accession numbers NCIM 1099, 1100), Alternaria alternata (bearing accession numbers NCIM 887), Claviceps purpurea (bearing accession numbers NCIM 1046), Curvularia fallax (bearing accession numbers NCIM 714), Curvularia lunata (NCIM 716), Curvularia cymbopogonis (bearing accession numbers NCIM 695) and Penicillium fellatanum (bearing accession numbers NCIM 1227) were grown on potato dextrose agar slants for 7-8 days. The said fungal strains have characteristics similar to the strains deposited at American Type Culture Collection, USA and bearing accession number as under: • Trichoderma reesei NCIM 992-ATCC No.13631 • Trichoderma reesei NCIM 1052-ATCC No.24449 • Trichoderma reesei NCIM 1186-ATCC No.26921 Fungal mycelium from the freshly grown culture was inoculated at the centre of petri plates containing potato dextrose agar medium and incubated till they form small circular growth. The time period for the vegetative growth of different fungus is different. On the periphery of the advancing fungal mycelia, four filter paper discs were impregnated at equal distances, with four different concentrations of the inhibitor sample. The plates were incubated at room temperature for 24-48 h to check the crescent zone of the retarded mycelial growth. For sporulating fungus the applicants also had checked the inhibition by spore suspension method. In this method the agar slants were incubated at room temperature till they sporulate. 4 ml of sterile distilled water was added aseptically to the agar slant and the spores were scrapped by using an inoculation loop. 1 ml of this suspension was mixed with 4 ml of malt extract, glucose, yeast extract, peptone media containing 0.4% agarose and poured onto the potato dextrose agar plate. This plate was incubated at room temperature for 4-10 h. Filter paper discs were impregnated and different concentrations of the inhibitor was added onto it. The plates were further incubated at room temperature for 24-48 h and the inhibition zone against the growth was checked. […] The advantages of the Invention are
(§3) Inhibition of growth of fungi by the inhibitor was studied using inhibition assays against mycelial growth and spore germination.
(§4) For example-In case of mycelial growth inhibition assay, fungal mycelium from freshly grown culture was inoculated at the center of potato dextrose agar plate and incubated at 28° C. for 48-72 hours. Sterile filter paper discs impregnated with different concentrations of the inhibitor were placed on the periphery of the growing fungal mycelium. The plates were incubated at 28° C. and the crescent zones of the retarded mycelial growth were observed. In case of inhibition assay against spore-germination, fungal spore suspension was made in malt extract, glucose, yeast extract and peptone (MGYP) liquid medium. To the spore suspension, various concentration of the inhibitor was added. The resulting suspension was incubated at 28° C. for 24 hours. The germination of the spores in presence and absence of the inhibitor were checked under inverted microscope. The minimum inhibitory does MID of several fungal strains are given below in the Table 2.

Alternaria alternata = test: as above; type: cell-based
From the text: as §2, §3, §4

Fusarium oxysporum = test: as above; type: cell-based
From the text: as §2, §3, §4

Fusarium moniliforme = test: as above; type: cell-based; conditions: 28° C.
From the text: as §2, §3, §4

Trichoderma reesei = test: as above; type: cell-based
From the text: as §2, §3, §4

Aspergillus oryzae = test: as above; type: cell-based
From the text: as §2, §3, §4

pepsin = pepsin (Homo sapiens, UniProt P0DJD8); test: Assay of pepsin inhibition (casein substrate, pH 2.0, OD 280 nm); type: biochemical; conditions: purified RP-HPLC compound
From the text: In a feature of the invention, the pepsin inhibitor was selectively purified by removing the high molecular weight compounds from the culture broth by treating it with activated charcoal. The charcoal treated broth was filtered through ultrafiltration membrane and concentrated by lyophilization. The concentrated inhibitor sample was loaded onto a reverse phase-high performance liquid chromatography column using a linear gradient of acetonitrile and triflouroacetate, and the peaks were checked for the inhibitor activity. […] This compound absorbs strongly at 210 nm. The compound was collected and checked as a single purified peptide after loading onto the HPLC column. One unit of inhibitor is defined as the amount of inhibitor which inhibits the protease activity expressed in terms of decrease in optical density of 0.001 per minute.
The protease pepsin was incubated in KC1-HC1 buffer, 0.02 M, pH-2.0, containing the inhibitor in various molar ratios at 37° C. for 30 min. After incubation the residual activity was determined and compared with the controls incubated without the inhibitor.
For example—To 0.05 ml of 100 mg/ml of aqueous solution of pepsin, 0.1 ml of the inhibitor solution was added. […] Precipitated excess casein was removed by filtration after incubation for one hour and the optical density was measured at 280 nm. […]

pepsin, sequence (P0DJD8 63-388): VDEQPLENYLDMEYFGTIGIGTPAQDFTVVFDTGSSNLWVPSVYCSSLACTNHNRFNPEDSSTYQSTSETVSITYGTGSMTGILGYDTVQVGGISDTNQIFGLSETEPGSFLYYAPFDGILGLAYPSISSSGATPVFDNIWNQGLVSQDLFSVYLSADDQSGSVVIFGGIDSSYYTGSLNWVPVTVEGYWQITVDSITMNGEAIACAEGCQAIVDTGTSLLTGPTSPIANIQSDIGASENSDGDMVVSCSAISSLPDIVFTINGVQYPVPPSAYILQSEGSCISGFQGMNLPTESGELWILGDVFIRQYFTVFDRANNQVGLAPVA

For AGKKDDDDPPE [inhibitor], which “inhibition of mycelial growth” value (Curvularia fallax) is on record?
Its value is “strongly inhibit”.

And the “inhibition of mycelial growth” value (Curvularia lunata)?
The value was “strongly inhibit”.

What about the “inhibition of mycelial growth” value (Curvularia cymbopogonis) of the same sequence?
Its value is “strongly inhibit”.

What about the “inhibition of mycelial growth” value (Claviceps purpurea) of the same sequence?
Its value is “strongly inhibit”.

What about the “inhibition of mycelial growth” value (Aspergillus flavus; Aspergillus flavus NCIM 535, 542, room temperature 24-48 h) of the same sequence?
The value was “strongly inhibit”.

What about the “MID (minimum inhibitory dose)” value (Aspergillus flavus; Aspergillus flavus, 28° C.) of the same sequence?
The value was 0.817 mg.

What about the “inhibition of mycelial growth” value (Alternaria alternata; Altemaria alternata NCIM 887, room temperature 24-48 h) of the same sequence?
Its value is “strongly inhibit”.

And the “MID (minimum inhibitory dose)” value (Alternaria alternata; Alternaria alternata, 28° C.)?
The value was 0.582 mg.

What about the “inhibition of mycelial growth” value (Fusarium oxysporum; Fusarium oxysporum NCIM 1008, 1072, room temperature 24-48 h) of the same sequence?
The value was “strongly inhibit”.

What about the “MID (minimum inhibitory dose)” value (Fusarium oxysporum; Fusarium oxysporum, 28° C.) of the same sequence?
The value was 2.300 mg.

And the “MID (minimum inhibitory dose)” value (Fusarium moniliforme)?
The value was 1.840 mg.

And the “inhibition of mycelial growth” value (Trichoderma reesei; Trichoderma reesei NCIM 992, 1052, 1186, room temperature 24-48 h)?
Its value is “strongly inhibit”.

And the “MID (minimum inhibitory dose)” value (Trichoderma reesei; Trichoderma reesei, 28° C.)?
Its value is 0.292 mg.

What about the “inhibition of mycelial growth” value (Aspergillus oryzae; Aspergillus oryzae NCIM 637, 643, room temperature 24-48 h) of the same sequence?
The value was “strongly inhibit”.

And the “MID (minimum inhibitory dose)” value (Aspergillus oryzae; Aspergillus oryzae, 28° C.)?
Its value is 1.147 mg.

What about the “inhibition against pepsin (RP-HPLC peak)” value (pepsin) of the same sequence?
The value was “showed the inhibition”.
